Assay results as given in patent publication US8236808B2, “Pyrazine derivatives as ENAC blockers” (Novartis AG, priority 2008, dated 2012).
pIC50: −log10 of the molar value. Counter-ions that a name gives are not always drawn.

target: T1, epithelial sodium channel (ENaC) (Homo sapiens, UniProt P37088+P51168+P51170); experiment: Short circuit current (ISC) measurements in human bronchial epithelial cells, inhibition of amiloride-sensitive ISC; type: cell-based; conditions: inhibition of the amiloride-sensitive ISC; HBECs cultured at air-liquid interface, Ussing chamber, compound added to apical chamber
T1 construct: host or cells: primary human bronchial epithelial cells (HBECs), differentiated at the air-liquid interface
T1 sequence (P37088 1-669): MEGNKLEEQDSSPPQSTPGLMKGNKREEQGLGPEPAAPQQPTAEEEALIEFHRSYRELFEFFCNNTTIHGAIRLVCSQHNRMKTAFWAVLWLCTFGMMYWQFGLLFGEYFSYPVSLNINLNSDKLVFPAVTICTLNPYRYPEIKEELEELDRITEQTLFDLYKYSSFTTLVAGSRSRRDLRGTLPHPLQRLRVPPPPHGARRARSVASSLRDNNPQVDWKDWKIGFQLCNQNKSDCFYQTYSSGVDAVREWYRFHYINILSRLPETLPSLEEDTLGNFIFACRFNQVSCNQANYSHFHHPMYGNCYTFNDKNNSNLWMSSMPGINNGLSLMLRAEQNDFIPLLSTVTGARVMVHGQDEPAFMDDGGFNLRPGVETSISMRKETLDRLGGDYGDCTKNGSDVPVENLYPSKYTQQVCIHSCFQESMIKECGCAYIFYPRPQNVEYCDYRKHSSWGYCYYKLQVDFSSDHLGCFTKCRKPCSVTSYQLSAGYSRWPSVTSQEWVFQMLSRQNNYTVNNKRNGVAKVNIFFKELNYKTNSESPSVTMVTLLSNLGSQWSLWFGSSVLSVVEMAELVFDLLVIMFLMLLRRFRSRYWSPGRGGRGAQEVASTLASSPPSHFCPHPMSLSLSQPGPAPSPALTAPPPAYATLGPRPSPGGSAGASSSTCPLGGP
T1 sequence (P51168 1-640): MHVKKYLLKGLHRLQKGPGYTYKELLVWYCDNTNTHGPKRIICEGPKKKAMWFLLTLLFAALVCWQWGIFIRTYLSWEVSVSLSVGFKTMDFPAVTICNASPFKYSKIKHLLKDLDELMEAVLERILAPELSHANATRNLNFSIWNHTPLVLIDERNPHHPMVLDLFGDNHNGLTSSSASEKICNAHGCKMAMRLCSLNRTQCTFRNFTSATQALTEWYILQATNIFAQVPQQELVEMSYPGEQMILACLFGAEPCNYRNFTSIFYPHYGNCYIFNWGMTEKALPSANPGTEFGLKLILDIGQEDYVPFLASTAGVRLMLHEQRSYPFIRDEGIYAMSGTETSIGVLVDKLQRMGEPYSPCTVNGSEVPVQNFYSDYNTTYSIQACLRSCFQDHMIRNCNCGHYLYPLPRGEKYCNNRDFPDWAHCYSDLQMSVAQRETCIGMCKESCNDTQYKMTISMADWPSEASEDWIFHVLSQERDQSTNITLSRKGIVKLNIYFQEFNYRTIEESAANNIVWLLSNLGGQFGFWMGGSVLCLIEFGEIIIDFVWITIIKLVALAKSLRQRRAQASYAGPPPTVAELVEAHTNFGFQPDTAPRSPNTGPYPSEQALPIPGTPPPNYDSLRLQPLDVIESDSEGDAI
T1 sequence (P51170 1-649): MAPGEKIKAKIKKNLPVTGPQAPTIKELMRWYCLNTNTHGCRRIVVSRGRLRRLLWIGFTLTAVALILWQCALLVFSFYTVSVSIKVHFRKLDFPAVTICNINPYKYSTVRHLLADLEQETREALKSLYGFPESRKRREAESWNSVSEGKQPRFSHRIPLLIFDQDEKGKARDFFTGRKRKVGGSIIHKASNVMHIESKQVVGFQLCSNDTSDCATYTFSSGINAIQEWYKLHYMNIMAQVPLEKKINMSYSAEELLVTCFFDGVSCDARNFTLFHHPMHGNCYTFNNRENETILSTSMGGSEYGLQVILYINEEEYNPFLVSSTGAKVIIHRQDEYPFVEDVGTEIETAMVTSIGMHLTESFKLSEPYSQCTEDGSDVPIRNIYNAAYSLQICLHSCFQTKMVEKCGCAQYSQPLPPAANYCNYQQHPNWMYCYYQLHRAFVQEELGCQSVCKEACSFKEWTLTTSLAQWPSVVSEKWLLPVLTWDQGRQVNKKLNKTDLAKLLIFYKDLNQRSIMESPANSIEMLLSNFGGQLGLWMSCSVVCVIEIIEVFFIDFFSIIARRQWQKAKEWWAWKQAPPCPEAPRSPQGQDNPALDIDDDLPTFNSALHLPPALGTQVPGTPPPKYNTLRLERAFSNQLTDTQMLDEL
Description: Compounds of formula (I), hereinafter referred to alternatively as “agents of the invention”, are useful as pharmaceuticals. In particular, the compounds have good ENaC blocker activity and may be tested in the following assays.
Human Bronchial Epithelial cells (HBECs) (Cambrex) were cultured under air-liquid interface conditions to provide a well differentiated mucociliary phenotype.
HBECs were cultured using a modification of the method described by Gray and colleagues (Gray et al., 1996). Cells were seeded in plastic T-162 flasks and were grown in bronchial epithelial cell growth medium (BEGM; Cambrex) supplemented with bovine pituitary extract (52 μg/mL), hydrocortisone (0.5 μg/mL), human recombinant epidermal growth factor (0.5 ng/mL), epinephrine (0.5 μg/mL), transferrin (10 μg/mL), insulin (5 μg/mL), retinoic acid (0.1 μg/mL), triiodothyronine ([…]), gentamycin (50 μg/mL) and amphotericin B (50 ng/mL). Medium was changed every 48 hours until cells were 90% confluent. Cells were then passaged and seeded (8.25×10^5 cells/insert) on polycarbonate Snapwell inserts (Costar) in differentiation media containing 50% DMEM in BEGM with the same supplements as above but without triiodothyronine and a final retinoic acid concentration of 50 nM (all-trans retinoic acid). Cells were maintained submerged for the first 7 days in culture, after which time they were exposed to an apical air interface for the remainder of the culture period. At this time, media was changed to DMEM:F12 media containing 2% v/v Ultroser G for the remainder of culture. Amphotericin B was removed from all media 3 feeds prior to use in the Ussing Chambers. Cells were used between days 7 and 21 after establishment of the apical-air interface. At all stages of culture, cells were maintained at 37° C. in 5% CO2 in an air incubator.
Snapwell inserts were mounted in Vertical Diffusion Chambers (Costar) and were bathed with continuously gassed Ringer solution (5% CO2 in O2; pH 7.4) maintained at 37° C. containing (in mM): 120 NaCl, 25 NaHCO3, 3.3 KH2PO4, 0.8 K2HPO4, 1.2 CaCl2, 1.2 MgCl2, and 10 glucose. The solution osmolarity was between 280 and 300 mOsmol/kg H2O for all physiological salt solutions used. Cells were voltage clamped to 0 mV (model EVC4000; WPI). RT was measured by applying a 1- or 2-mV pulse at 30-s intervals and calculating RT by Ohm's law. Data were recorded using a PowerLab workstation (ADInstruments).
Test compounds were prepared as a 10 mM stock solution in DMSO (95%). Serial 3-fold dilutions were freshly prepared in an appropriate vehicle (distilled H2O or Ringers solution). The initial concentration was added to the apical chamber as a 1000× concentrate in 5 μL, resulting in a final 1× concentration the 5 mL volume of the Ussing chamber. Subsequent additions of compound were added in a 3.3 μL volume of the 1000× serially diluted stock solution. At the completion of the concentration-response experiment, amiloride (10 μM) was added into the apical chamber to enable the total amiloride-sensitive current to be measured. An amiloride control IC50 was established at the start of each experiment.
Results are expressed as the mean % inhibition of the amiloride-sensitive ISC. Concentration-response curves were plotted and IC50 values generated using GraphPad Prism 3.02. Cell inserts were typically run in duplicate and the IC50 calculated on the mean % inhibition data.

pIC50	SMILES
5.24	C[N+](C)(C)CCNC(=O)c1nc(Cl)c(N)nc1N [Example 130, {2-[(3,5-Diamino-6-chloro-pyrazine-2-carbonyl)-amino]-ethyl}-trimethyl-ammonium iodide]
7.28	C[N+](C)(C)[C@@H](CCCCNC(=O)Cc1ccc(OCc2ccccc2)cc1)CNC(=O)c1nc(Cl)c(N)nc1N [Example 15, ((S)-5-[2-(4-Benzyloxy-phenyl)-acetylamino]-1-{[(3,5-diamino-6-chloro-pyrazine-2-carbonyl)-amino]-methyl}-pentyl)-trimethyl-ammonium iodide]
6.66	COc1ccc(CCC[N+](C)(C)CCNC(=O)c2nc(Cl)c(N)nc2N)cc1 [Example 27, {2-[(3,5-diamino-6-chloro-pyrazine-2-carbonyl)-amino]-ethyl}-[3-(4-methoxy-phenyl)-propyl]-dimethyl-ammonium bromide]
7.37	C[N+](C)(CCCCNC(=O)Cc1ccc(OCc2ccccc2)cc1)CCNC(=O)c1nc(Cl)c(N)nc1N [Example 63, {4-[2-(4-Benzyloxy-phenyl)-acetylamino]-butyl}-{2-[(3,5-diamino-6-chloro-pyrazine-2-carbonyl)-amino]-ethyl}-dimethyl-ammonium bromide]
6.27	C[N+](C)(CCNC(=O)c1nc(Cl)c(N)nc1N)CCNS(=O)(=O)Cc1ccc(Cl)cc1 [Example 108, [2-(4-Chloro-phenylmethanesulfonylamino)-ethyl]-{2-[(3,5-diamino-6-chloro-pyrazine-2-carbonyl)-amino]-ethyl}-dimethyl-ammonium bromide]
6.60	CCC[C@H](CNC(=O)c1nc(Cl)c(N)nc1N)[N+](C)(C)C [Example 1, ((R)-1-{[(3,5-Diamino-6-chloro-pyrazine-2-carbonyl)-amino]-methyl}-butyl)-trimethyl-ammonium iodide]
8.40	CCC[C@@H](CNC(=O)c1nc(Cl)c(N)nc1N)[N+](C)(C)CCCc1ccc(OC)cc1 [Example 120, ((S)-1-{[(3,5-Diamino-6-chloro-pyrazine-2-carbonyl)-amino]-methyl}-butyl)-[3-(4-methoxy-phenyl)-propyl]-dimethyl-ammonium trifluoroacetate]
8.12	C=CC[N+](CCCc1ccc(OC)cc1)(CCCc1ccc(OC)cc1)CCNC(=O)c1nc(Cl)c(N)nc1N [Example 17, Allyl-{2-[(3,5-diamino-6-chloro-pyrazine-2-carbonyl)-amino]-ethyl}-bis-[3-(4-methoxy-phenyl)-propyl]-ammonium trifluoroacetate]
5.27	C[N+]1(C)CCC[C@@H]1CNC(=O)c1nc(Cl)c(N)nc1N [Example 11, (R)-2-{[(3,5-Diamino-6-chloro-pyrazine-2-carbonyl)-amino]-methyl}-1,1-dimethyl-pyrrolidinium iodide]
7.29	COc1ccc(CCC[N+](CCCc2ccc(OC)cc2)(CCNC(=O)c2nc(Cl)c(N)nc2N)CC(N)=O)cc1 [Example 22, Carbamoylmethyl-{2-[(3,5-diamino-6-chloro-pyrazine-2-carbonyl)-amino]-ethyl}-bis-[3-(4-methoxy-phenyl)-propyl]-ammonium trifluoroacetate]
7.70	CCN(CC)CC[N+](CCCc1ccc(OC)cc1)(CCCc1ccc(OC)cc1)CCNC(=O)c1nc(Cl)c(N)nc1N [Example 19, {2-[(3,5-Diamino-6-chloro-pyrazine-2-carbonyl)-amino]-ethyl}-(2-diethylamino-ethyl)-bis-[3-(4-methoxy-phenyl)-propyl]-ammonium trifluoroacetate]
6.54	C[N+](C)(CCCCNS(=O)(=O)c1ccc(Cl)cc1)CCNC(=O)c1nc(Cl)c(N)nc1N [Example 100, [4-(4-Chloro-benzenesulfonylamino)-butyl]-{2-[(3,5-diamino-6-chloro-pyrazine-2-carbonyl)-amino]-ethyl}-dimethyl-ammonium bromide]
5.46	C[N+](C)(C)C1(CNC(=O)c2nc(Cl)c(N)nc2N)CCCC1 [Example 9, (1-{[(3,5-Diamino-6-chloro-pyrazine-2-carbonyl)-amino]-methyl}-cyclopentyl)-trimethyl-ammonium iodide]
